Reference: PubChem BioAssay (NCI)
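In this assay, cells in 96-well plates receive the compound at five concentrations for 48 hours. Endpoints are linearly interpolated between the surrounding concentrations. Abbreviation: GI50, concentration required for 50% inhibition of growth. TGI marks complete inhibition of growth.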

Key:
Assay in all cases: DTP human tumour cell line panel, 48 h
MOLT-4 leukemia = test system: MOLT-4 leukemia
BT-549 breast = test system: BT-549 breast
TK-10 renal = test system: TK-10 renal
SF-295 CNS = test system: SF-295 CNS
UACC-257 melanoma = test system: UACC-257 melanoma
SW-620 colon = test system: SW-620 colon
SK-MEL-28 melanoma = test system: SK-MEL-28 melanoma
DU-145 prostate = test system: DU-145 prostate
CCRF-CEM leukemia = test system: CCRF-CEM leukemia
NCI-H23 lung = test system: NCI-H23 lung

CCc1nc(N)nc(N)c1-c1ccc(NCCc2ccccc2)c([N+](=O)[O-])c1
TGI (MOLT-4 leukemia): 33300 nM | TGI (BT-549 breast): 42900 nM | TGI (TK-10 renal): > 69700 nM | TGI (SF-295 CNS): 32900 nM | TGI (UACC-257 melanoma): 26200 nM | TGI (SW-620 colon): > 79400 nM | TGI (SK-MEL-28 melanoma): 28200 nM | TGI (DU-145 prostate): > 53800 nM | TGI (CCRF-CEM leukemia): > 61200 nM | TGI (NCI-H23 lung): > 54100 nM

CCOC(=O)Nc1ccc(-c2nc(-c3cccc(OC)c3)c(-c3ccnc(Br)c3)[nH]2)cc1
GI50 (MOLT-4 leukemia): 2210 nM | TGI (MOLT-4 leukemia): > 100000 nM | GI50 (BT-549 breast): 2190 nM | TGI (BT-549 breast): 8110 nM | GI50 (TK-10 renal): 3880 nM | TGI (TK-10 renal): > 100000 nM | GI50 (SF-295 CNS): 416 nM | TGI (SF-295 CNS): 2930 nM | GI50 (UACC-257 melanoma): 2680 nM | TGI (UACC-257 melanoma): 7900 nM | GI50 (SW-620 colon): 3190 nM | TGI (SW-620 colon): > 100000 nM | GI50 (SK-MEL-28 melanoma): 2800 nM | TGI (SK-MEL-28 melanoma): > 100000 nM | GI50 (DU-145 prostate): 3240 nM | TGI (DU-145 prostate): > 100000 nM | GI50 (CCRF-CEM leukemia): 2750 nM | TGI (CCRF-CEM leukemia): > 100000 nM | GI50 (NCI-H23 lung): 2000 nM | TGI (NCI-H23 lung): 4750 nM

Cc1nc(N)sc1C(=O)Nc1cc(C(=O)NCCCN(C)C)n(C)c1
GI50 (MOLT-4 leukemia): > 100000 nM | TGI (MOLT-4 leukemia): > 100000 nM | GI50 (BT-549 breast): 76700 nM | TGI (BT-549 breast): > 100000 nM | GI50 (TK-10 renal): > 100000 nM | TGI (TK-10 renal): > 100000 nM | GI50 (SF-295 CNS): > 100000 nM | TGI (SF-295 CNS): > 100000 nM | GI50 (UACC-257 melanoma): > 100000 nM | TGI (UACC-257 melanoma): > 100000 nM | GI50 (SW-620 colon): > 100000 nM | TGI (SW-620 colon): > 100000 nM | GI50 (SK-MEL-28 melanoma): 65400 nM | TGI (SK-MEL-28 melanoma): > 100000 nM | GI50 (DU-145 prostate): 67300 nM | TGI (DU-145 prostate): > 100000 nM | GI50 (CCRF-CEM leukemia): > 100000 nM | TGI (CCRF-CEM leukemia): > 100000 nM | GI50 (NCI-H23 lung): > 100000 nM | TGI (NCI-H23 lung): > 100000 nM

CC(=O)[O][Hg][c]1ccccc1
GI50 (MOLT-4 leukemia): 190 nM | TGI (MOLT-4 leukemia): 551 nM | GI50 (BT-549 breast): 453 nM | TGI (BT-549 breast): 1660 nM | GI50 (TK-10 renal): 512 nM | TGI (TK-10 renal): 1360 nM | GI50 (SF-295 CNS): 1610 nM | TGI (SF-295 CNS): 3570 nM | GI50 (UACC-257 melanoma): 908 nM | TGI (UACC-257 melanoma): 2180 nM | GI50 (SW-620 colon): 215 nM | TGI (SW-620 colon): 492 nM | GI50 (SK-MEL-28 melanoma): 383 nM | TGI (SK-MEL-28 melanoma): 1470 nM | GI50 (DU-145 prostate): 1250 nM | TGI (DU-145 prostate): 2720 nM | GI50 (CCRF-CEM leukemia): 147 nM | TGI (CCRF-CEM leukemia): 494 nM | GI50 (NCI-H23 lung): 682 nM | TGI (NCI-H23 lung): 3460 nM

COc1ccc(Cn2cc3c(c2-c2cc(OC)c(OC)c(OC)c2)CCc2cnoc2-3)cc1[N+](=O)[O-]
GI50 (MOLT-4 leukemia): 1400 nM | TGI (MOLT-4 leukemia): > 100000 nM | GI50 (BT-549 breast): 7900 nM | TGI (BT-549 breast): > 100000 nM | GI50 (TK-10 renal): 3570 nM | TGI (TK-10 renal): > 84300 nM | GI50 (SF-295 CNS): 328 nM | TGI (SF-295 CNS): 2090 nM | GI50 (UACC-257 melanoma): 4030 nM | TGI (UACC-257 melanoma): > 100000 nM | GI50 (SW-620 colon): 482 nM | TGI (SW-620 colon): > 100000 nM | GI50 (SK-MEL-28 melanoma): 3390 nM | TGI (SK-MEL-28 melanoma): > 100000 nM | GI50 (DU-145 prostate): 1910 nM | TGI (DU-145 prostate): > 21300 nM | GI50 (CCRF-CEM leukemia): 788 nM | TGI (CCRF-CEM leukemia): > 100000 nM | GI50 (NCI-H23 lung): 1460 nM | TGI (NCI-H23 lung): > 30300 nM

COc1cc2nc3cc([N+](=O)[O-])ccc3c(NCCCNCC(C)(C)O)c2cc1OC
GI50 (MOLT-4 leukemia): 372 nM | TGI (MOLT-4 leukemia): 6670 nM | GI50 (BT-549 breast): 1750 nM | TGI (BT-549 breast): 3320 nM | GI50 (TK-10 renal): 500 nM | TGI (TK-10 renal): 2490 nM | GI50 (SF-295 CNS): 501 nM | TGI (SF-295 CNS): 2430 nM | GI50 (UACC-257 melanoma): 1620 nM | TGI (UACC-257 melanoma): 3100 nM | GI50 (SW-620 colon): 301 nM | TGI (SW-620 colon): 1510 nM | GI50 (SK-MEL-28 melanoma): 839 nM | TGI (SK-MEL-28 melanoma): 2500 nM | GI50 (DU-145 prostate): 324 nM | TGI (DU-145 prostate): 1110 nM | GI50 (CCRF-CEM leukemia): 502 nM | TGI (CCRF-CEM leukemia): 3980 nM | GI50 (NCI-H23 lung): 196 nM | TGI (NCI-H23 lung): 543 nM

COc1ccc(C(=O)c2cc3c(N)c(C(=O)Nc4cccc(Cl)c4C)sc3nc2C)cc1
GI50 (MOLT-4 leukemia): 153 nM | TGI (MOLT-4 leukemia): > 25000 nM | GI50 (BT-549 breast): 250 nM | TGI (BT-549 breast): > 25000 nM | GI50 (TK-10 renal): > 25000 nM | TGI (TK-10 renal): > 25000 nM | GI50 (SF-295 CNS): 83.3 nM | TGI (SF-295 CNS): > 25000 nM | GI50 (UACC-257 melanoma): > 6120 nM | TGI (UACC-257 melanoma): > 25000 nM | GI50 (SW-620 colon): 105 nM | TGI (SW-620 colon): > 25000 nM | GI50 (SK-MEL-28 melanoma): > 25000 nM | TGI (SK-MEL-28 melanoma): > 25000 nM | GI50 (DU-145 prostate): 105 nM | TGI (DU-145 prostate): > 25000 nM | GI50 (CCRF-CEM leukemia): 88.9 nM | TGI (CCRF-CEM leukemia): > 25000 nM | GI50 (NCI-H23 lung): 173 nM | TGI (NCI-H23 lung): > 25000 nM

O=C(OCc1ccc2c(Cl)cc(Cl)c(O)c2n1)c1cc2ccccc2[nH]1
GI50 (MOLT-4 leukemia): 407 nM | TGI (MOLT-4 leukemia): 2350 nM | GI50 (BT-549 breast): 265 nM | TGI (BT-549 breast): 845 nM | GI50 (TK-10 renal): 553 nM | TGI (TK-10 renal): 1470 nM | GI50 (SF-295 CNS): 1640 nM | TGI (SF-295 CNS): 3310 nM | GI50 (UACC-257 melanoma): 880 nM | TGI (UACC-257 melanoma): 3000 nM | GI50 (SW-620 colon): 241 nM | TGI (SW-620 colon): 613 nM | GI50 (SK-MEL-28 melanoma): 532 nM | TGI (SK-MEL-28 melanoma): 1620 nM | GI50 (DU-145 prostate): 916 nM | TGI (DU-145 prostate): 2190 nM | GI50 (CCRF-CEM leukemia): 146 nM | TGI (CCRF-CEM leukemia): 1930 nM | GI50 (NCI-H23 lung): 1490 nM | TGI (NCI-H23 lung): 3200 nM

Nc1c(C(=O)Nc2ccccc2F)sc2nc3c(cc12)C(=O)CCC3
GI50 (MOLT-4 leukemia): > 100000 nM | TGI (MOLT-4 leukemia): > 100000 nM | TGI (BT-549 breast): > 52500 nM | GI50 (TK-10 renal): 4300 nM | TGI (TK-10 renal): > 100000 nM | GI50 (SF-295 CNS): 611 nM | TGI (SF-295 CNS): > 92600 nM | GI50 (UACC-257 melanoma): > 100000 nM | TGI (UACC-257 melanoma): > 100000 nM | GI50 (SW-620 colon): 721 nM | TGI (SW-620 colon): > 100000 nM | GI50 (SK-MEL-28 melanoma): 6330 nM | TGI (SK-MEL-28 melanoma): > 100000 nM | GI50 (DU-145 prostate): 1810 nM | TGI (DU-145 prostate): > 28600 nM | GI50 (CCRF-CEM leukemia): 3460 nM | TGI (CCRF-CEM leukemia): > 100000 nM | GI50 (NCI-H23 lung): 2040 nM | TGI (NCI-H23 lung): > 100000 nM
